Experimental data from patent publication US8513417B2, “Method for synthesis of nitroxyl radical” (Kyushu University, National University Corporation, priority 2008, dated 2013).

Key:
[1] = Reactivity of nitroxyl radical to hydroxyl radical (UV/H2O2, X-band ESR); format: physicochemical; conditions: nitroxyl radical 25 μM, H2O2 10 mM, UV 100 to 120 mW/cm^2, X-band ESR
Procedure: In order to examine reactivities of the following 3 types of TEMPO-based nitroxyl radical derivatives, in which substituents at position-2 and position-6 in one derivative are different from those in another derivative, to free radical:
[drawing 49] according to the method of Takeshita et al. (Biochimica et Biophysica Acta, 1573, 156-164 (2002)), the following procedure was carried out. Nitroxyl radical (25 μM) was mixed with H2O2 (10 mM), and thereafter a specific amount of the mixture was collected in a capillary and irradiated with UV (100 to 120 mW/cm^2) to generate OH radical. The reactivities thereof to the nitroxyl radical were examined using X-band ESR.

[2] = Reactivity of nitroxyl radical to ascorbic acid (decrease in ESR signal intensity over time); format: physicochemical; conditions: nitroxyl radical 10 to 50 μM, ascorbic acid 100 μM to 2 mM, X-band ESR
Procedure: It has been reported that nitroxyl radical also reacts with a reduction substance (Couet, W. R., Tetrahedron, 41(7), 1165-1172 (1985); Finkelstein, E., Biochimica et Biophysica Acta, 802, 90-98 (1984)). Therefore, the following procedure was carried out. After nitroxyl radical (10 to 50 μM) was mixed with ascorbic acid (100 μM to 2 mM), a specific amount of the mixture was collected in a capillary, and thereafter the measurement was started. Using X-band ESR, decrease in ESR signal intensity was observed over time, thereby examining the reactivity to ascorbic acid, which is a typical reduction substance in the living body.

Row | SMILES | melting point [°C] | reactivities to hydroxyl radical, rank order [1] | reactivities to ascorbic acid, rank order [2] | reactivity to ascorbic acid ([2]; FIG. 2)
1 | CC(C)(C)C1CC(=O)CC(C(C)(C)C)N1 (stereo not shown) | 55.4 | – | – | –
2 | [O]N1C2(CCOCC2)CC(=O)CC12CCOCC2 [Compound 3, 2,6-dispiro-1′,1″-dipyran-piperidone-1-oxyl] | – | Compound 1>Compound 3>Compound 2 | Compound 3>Compound 2>Compound 1 | very rapidly reacts with ascorbic acid
